Experimental data: ChEMBL document CHEMBL6120992, “Breviane Spiroditerpenoids with Anti-inflammatory and Antiviral Activities from Deep-Sea-Derived Fungus Penicillium sp. F59” (J Nat Prod, 2025)

Key:
RAW264.7 [1] = assay: Cytotoxicity against mouse RAW264.7 cells assessed as cell viability at 20 microM incubated for 24 hrs by CCK-8 method relative to control; type: functional; details: read-out: Activity
RAW264.7 [2] = assay: Antiinflammatory activity in LPS-induced mouse RAW264.7 cells assessed as inhibition of nitric oxide secretion at 20 microM incubated for 24 hrs by Griess reagent based assay relative to control; type: functional
SARS-CoV-2 [3] = assay: Antiviral activity against SARS-CoV-2 Omicron BA.2 pseudovirus infected in human 293T/ACE2 cells assessed as virus inhibition at 50 microM incubated for 24 hrs by firefly luciferase assay relative to control; type: functional; details: Severe acute respiratory syndrome coronavirus 2, Omicron BA.2, 293T/ACE2
[4] = Cytotoxicity against human 293T/ACE2 cells assessed as cell viability at 100 microM incubated for 24 hrs by CellTiter assay relative to control; type: functional; details: read-out: Activity
RAW264.7 [5] = assay: Antiinflammatory activity in LPS-induced mouse RAW264.7 cells assessed as inhibition of nitric oxide secretion incubated for 24 hrs by Griess reagent based assay; type: functional, cell-based; details: RAW264.7, 24 h
SARS-CoV-2 [6] = assay: Antiviral activity against SARS-CoV-2 Omicron BA.2 pseudovirus infected in human 293T/ACE2 cells assessed as virus inhibition incubated for 24 hrs by firefly luciferase assay; type: functional, organism-based; details: Severe acute respiratory syndrome coronavirus 2, Omicron BA.2, 293T/ACE2, 24 h

CC1=C[C@H](O)[C@@H]2[C@@]3(C)[C@H](O)C(=O)[C@H](O)C(C)(C)[C@@H]3CC[C@@]2(C)[C@]12Cc1c(c(C)c(C)oc1=O)O2
viability at 20 µM (RAW264.7 [1]): 100%
inhibition at 20 µM (RAW264.7 [2]): 35%
inhibition at 50 µM (SARS-CoV-2 [3]): 11%
viability at 100 µM [4]: 93%

CC1=C[C@H](O)[C@@H]2[C@@]3(C)C[C@@H](O)C(=O)C(C)(C)[C@@H]3CC[C@@]2(C)[C@]12Cc1c(c(C)c(C)oc1=O)O2
viability at 20 µM (RAW264.7 [1]): 100%
inhibition at 20 µM (RAW264.7 [2]): 38%
inhibition at 50 µM (SARS-CoV-2 [3]): 0%
viability at 100 µM [4]: 93%

CO[C@H]1c2c(c(C)c(C)oc2=O)O[C@]12C(C)=C[C@H]1O[C@H]3CC(=O)C=C(C)[C@@H]4CC[C@]2(C)[C@H]1[C@@]34C
viability at 20 µM (RAW264.7 [1]): 85%
inhibition at 20 µM (RAW264.7 [2]): 57%
inhibition at 50 µM (SARS-CoV-2 [3]): 0%
viability at 100 µM [4]: 92%

CC1=CC(=O)[C@@H]2[C@@]3(C)C=CC(=O)C(C)(C)[C@@H]3CC[C@@]2(C)[C@]12Cc1c(c(C)c(C)oc1=O)O2
viability at 20 µM (RAW264.7 [1]): 100%
inhibition at 20 µM (RAW264.7 [2]): 87%
inhibition at 50 µM (SARS-CoV-2 [3]): 23%
viability at 100 µM [4]: 95%
IC50 (RAW264.7 [5]): 5.3 µM

CC(=O)/C(C)=C1\C[C@H]2O[C@@H](O)[C@]34CC[C@H]5C(C)=CC(=O)C[C@@H]6O[C@H](C=C(C)[C@@]23O1)[C@@H]4[C@@]65C
viability at 20 µM (RAW264.7 [1]): 100%
inhibition at 20 µM (RAW264.7 [2]): 38%
inhibition at 50 µM (SARS-CoV-2 [3]): 0%
viability at 100 µM [4]: 90%

CC1=CC(=O)C[C@@H]2O[C@@H]3C=C(C)[C@@]45Oc6c(C)c(C)oc(=O)c6[C@@H]4OC[C@]54CC[C@@H]1[C@@]2(C)[C@@H]34
viability at 20 µM (RAW264.7 [1]): 93%
inhibition at 20 µM (RAW264.7 [2]): 45%
inhibition at 50 µM (SARS-CoV-2 [3]): 16%
viability at 100 µM [4]: 90%

CC1=CC(=O)C=C[C@]2(C)[C@H]3CC=C(C)[C@@]45Oc6c(C)c(C)oc(=O)c6[C@@H]4O[C@@H](O)[C@@]35CC[C@@H]12
viability at 20 µM (RAW264.7 [1]): 91%
inhibition at 20 µM (RAW264.7 [2]): 69%
inhibition at 50 µM (SARS-CoV-2 [3]): 28%
viability at 100 µM [4]: 93%

CC1=CC(=O)C=C[C@]2(C)[C@H]3C(O)C=C(C)[C@@]4(Cc5c(c(C)c(C)oc5=O)O4)[C@]3(C)CC[C@@H]12 (stereo partly drawn)
viability at 20 µM (RAW264.7 [1]): 98%
inhibition at 20 µM (RAW264.7 [2]): 94%
inhibition at 50 µM (SARS-CoV-2 [3]): 0%
viability at 100 µM [4]: 93%
IC50 (RAW264.7 [5]): 9.2 µM

CC1=CC(=O)C=C[C@]2(C)[C@H]3C(=O)C=C(C)[C@]4(Oc5c(C)c(C)oc(=O)c5[C@@H]4O)[C@]3(C)CC[C@@H]12
viability at 20 µM (RAW264.7 [1]): 91%
inhibition at 20 µM (RAW264.7 [2]): 47%
inhibition at 50 µM (SARS-CoV-2 [3]): 46%
viability at 100 µM [4]: 98%

CC1=CC(=O)C=C[C@]2(C)[C@H]3[C@@H](O)[C@@H]4O[C@]4(C)[C@@]4(Cc5c(c(C)c(C)oc5=O)O4)[C@]3(C)CC[C@@H]12
viability at 20 µM (RAW264.7 [1]): 100%
inhibition at 20 µM (RAW264.7 [2]): 63%
inhibition at 50 µM (SARS-CoV-2 [3]): 69%
IC50 (SARS-CoV-2 [6]): 10.3 µM
viability at 100 µM [4]: 99%

CC(=O)/C(C)=C1/C[C@H]2O[C@@H](O)[C@]34CC[C@H]5C(C)=CC(=O)C[C@@H]6O[C@H](C=C(C)[C@@]23O1)[C@@H]4[C@@]65C
viability at 20 µM (RAW264.7 [1]): 96%
inhibition at 20 µM (RAW264.7 [2]): 31%
inhibition at 50 µM (SARS-CoV-2 [3]): 15%
viability at 100 µM [4]: 92%

CC1=CC[C@@H]2[C@@]3(C)C=CC(=O)[C@@](C)(CO)[C@@H]3CC[C@@]2(C)[C@]12Cc1c(c(C)c(C)oc1=O)O2
viability at 20 µM (RAW264.7 [1]): 87%
inhibition at 20 µM (RAW264.7 [2]): 49%
inhibition at 50 µM (SARS-CoV-2 [3]): 14%
viability at 100 µM [4]: 97%

CC(=O)O[C@@H]1O[C@@H]2C/C(=C(/C)C(C)=O)O[C@]23C(C)=C[C@H]2O[C@H]4CC(=O)C=C(C)[C@@H]5CC[C@@]13[C@H]2[C@@]45C
viability at 20 µM (RAW264.7 [1]): 100%
inhibition at 20 µM (RAW264.7 [2]): 34%
inhibition at 50 µM (SARS-CoV-2 [3]): 57%
viability at 100 µM [4]: 92%

CC1=CC(=O)C[C@@H]2O[C@@H]3C=C(C)[C@]4(Oc5c(C)c(C)oc(=O)c5[C@@H]4O)[C@]4(C)CC[C@@H]1[C@@]2(C)[C@@H]34
viability at 20 µM (RAW264.7 [1]): 100%
inhibition at 20 µM (RAW264.7 [2]): 52%
inhibition at 50 µM (SARS-CoV-2 [3]): 43%
viability at 100 µM [4]: 92%

CC1=CC(=O)C[C@@H]2O[C@@H]3C=C(C)[C@@]4(Cc5c(c(C)c(C)oc5=O)O4)[C@]4(C)CC[C@@H]1[C@@]2(C)[C@@H]34
viability at 20 µM (RAW264.7 [1]): 100%
inhibition at 20 µM (RAW264.7 [2]): 25%
inhibition at 50 µM (SARS-CoV-2 [3]): 0%
viability at 100 µM [4]: 95%

CC1=CC(=O)C[C@@H]2O[C@@H]3C=C(C)[C@@]45Oc6c(C)c(C)oc(=O)c6[C@@H]4O[C@@H](O)[C@]54CC[C@@H]1[C@@]2(C)[C@@H]34
viability at 20 µM (RAW264.7 [1]): 100%
inhibition at 20 µM (RAW264.7 [2]): 35%
inhibition at 50 µM (SARS-CoV-2 [3]): 0%
viability at 100 µM [4]: 99%

CC1=CC(=O)[C@@H]2[C@@]3(C)[C@H](O)CC(=O)C(C)(C)[C@@H]3CC[C@@]2(C)[C@]12Cc1c(c(C)c(C)oc1=O)O2
viability at 20 µM (RAW264.7 [1]): 99%
inhibition at 20 µM (RAW264.7 [2]): 45%
inhibition at 50 µM (SARS-CoV-2 [3]): 28%
viability at 100 µM [4]: 91%

CC1=CC(=O)C=C[C@]2(C)[C@H]3[C@@H]4C=C(C)[C@@]56Oc7c(C)c(C)oc(=O)c7[C@@H]5O[C@@H](O4)[C@@]36CC[C@@H]12
viability at 20 µM (RAW264.7 [1]): 93%
inhibition at 20 µM (RAW264.7 [2]): 98%
inhibition at 50 µM (SARS-CoV-2 [3]): 95%
IC50 (SARS-CoV-2 [6]): 8.5 µM
viability at 100 µM [4]: 94%
IC50 (RAW264.7 [5]): 1.4 µM

CC(C)(C)c1ccc(S(=O)(=O)/C=C/C#N)cc1 [BAY-11-7085]
viability at 20 µM (RAW264.7 [1]): 100%
inhibition at 20 µM (RAW264.7 [2]): 77%
inhibition at 50 µM (SARS-CoV-2 [3]): 99%
IC50 (SARS-CoV-2 [6]): 0.74 µM
viability at 100 µM [4]: 99%
IC50 (RAW264.7 [5]): 13.3 µM

CC1=CC(=O)C=C[C@]2(C)[C@H]3[C@@H](O)C=C(C)[C@@]4(Cc5c(c(C)c(C)oc5=O)O4)[C@]3(C)CC[C@@H]12 [BREVIONE F]
viability at 20 µM (RAW264.7 [1]): 100%
inhibition at 20 µM (RAW264.7 [2]): 79%
inhibition at 50 µM (SARS-CoV-2 [3]): 5%
viability at 100 µM [4]: 97%
IC50 (RAW264.7 [5]): 12.9 µM
